Assay results: patent EP4295688A1, “ACTIVE COMPOUND COMBINATION” (Bayer Aktiengesellschaft, priority 2022, dated 2023)
Like-named read-outs stand apart in the source and are kept apart here.

Assay: Measurement of LogP values by HPLC on reversed phase columns (EEC directive 79/831 Annex V.A8)
Type: physicochemical
Settings: for chromatographic logP: reversed-phase HPLC column (Agilent Zorbax Eclipse C18)
Procedure: Measurement of LogP values was performed according to EEC directive 79/831 Annex V.A8 by HPLC (High Performance Liquid Chromatography) on reversed phase columns (Agilent Zorbax Eclipse C18) with the following methods: • ^[a] LogP value is determined by measurement of LC-UV and/or MS and/or ELS, in an acidic range, with 0.1% formic acid in water and acetonitrile as eluent (linear gradient from 10% acetonitrile to 95% acetonitrile). • ^[b] LogP value is determined by measurement of LC-UV and/or MS and/or ELS, in a neutral range, with 0.001 molar ammonium acetate solution in water and acetonitrile as eluent (linear gradient from 10% acetonitrile to 95% acetonitrile). If more than one LogP value is available within the same method, all the values are given and separated by "+". Calibration was done with straight-chain alkan2-ones (with 3 to 16 carbon atoms) with known LogP values (measurement of LogP values using retention times with linear interpolation between successive alkanones). Lambda-max-values were determined using UV-spectra from 200 nm to 400 nm and the peak values of the chromatographic signals.

[1] = method [a]: acidic range, 0.1% formic acid in water and acetonitrile as eluent (linear gradient 10% to 95% acetonitrile)
[2] = [Method A] as printed in the preparation examples (taken as method [a], acidic range)

| SMILES | chromatographic logP [1] | chromatographic logP [2] | other results |
| --- | --- | --- | --- |
| CCOC(=O)c1cnn(Cc2ccc(-c3noc(C(F)(F)Cl)n3)cc2F)c1 [1.01, ethyl 1-(4-{5-[chloro(difluoro)methyl]-1,2,4-oxadiazol-3-yl}-2-fluorobenzyl)-1H-pyrazole-4-carboxytate] | – | – | LogP: 3.98^[a] |
| CCOC(=O)c1cnn(Cc2ccc(-c3noc(C(F)(F)Cl)n3)s2)c1 [1.02, ethyl 1-[(5-{5-[chloro(difluoro)methyl]-1,2,4-oxadiazol-3-yl}-2-thienyl)methyl]-1H-pyrazole-4-carboxylate] | 3.81 | – | – |
| C#Cc1ccn(Cc2ccc(-c3noc(C(F)(F)Cl)n3)cc2)n1 [1.03, 5-[chloro(difluoro)methyl]-3-{4-[(3-ethynyl-1H-pyrazol-1-yl)methyl]phenyl}-1,2,4-oxadiazole] | 3.81 | 3.31 | – |
| CONC(=O)N(Cc1ccc(-c2noc(C(F)(F)Cl)n2)cc1)OC [1.04, 1-(4-{5-[Chloro(difluoro)methyl]-1,2,4-oxadiazol-3-yl}benzyl)-1,3-dimethoxyurea] | 2.92 | 2.92 | – |
| COC(C)C(=O)N(Cc1ccc(-c2noc(C(F)(F)Cl)n2)cc1)OC (stereo not shown) [1.05, N-(4-{5-[chloro(difluoro)methyl]-1,2,4-oxadiazol-3-yl}benzyl)-N,2-dimethoxypropan-amide] | 3.31 | 3.31 | – |
| CCOC(=O)c1cnn(Cc2ccc(-c3noc(C(F)(F)Cl)n3)cc2F)c1 [I.01] | – | – | LogP [2]: 3.98 |
| CCOC(=O)c1cnn(Cc2ccc(-c3noc(C(F)(F)Cl)n3)s2)c1 [I.02] | – | – | LogP [2]: 3.81 |
| Cc1ccc(C(N)=NO)s1 [N'-hydroxy-5-methylthiophene-2-carboximidamide] | – | – | chromatographic logP ([Method B] as printed in the preparation examples (taken as method [b], neutral range, 0.001 molar ammonium acetate)): 1.17 |
| FC(F)(Cl)c1nc(-c2ccc(CBr)s2)no1 [VIII'-b, 3-[5-(bromomethyl)-2-thienyl]-5-[chloro(difluoro)methyl]-1,2,4-oxadiazole] | 4.2 | 4.2 | – |
| Cc1ccc(-c2noc(C(F)(F)Cl)n2)s1 [X-a, 5-[chloro(difluoro)methyl]-3-(5-methyl-2-thienyl)-1,2,4-oxadiazole] | 4.18 | 4.18 | – |

Now from value to molecule, other results behind:

| chromatographic logP [1] | chromatographic logP [2] | SMILES | other results |
| --- | --- | --- | --- |
| 3.09 | 3.09 | CONCc1ccc(-c2noc(C(F)(F)Cl)n2)cc1 [V-a, 1-[4-[5-[Chloro(difluoro)methyl]-1.2.4-oxadiazol-3-yl]phenyl]-N-methoxy-methanamine] | – |
| 2.98 | 2.98 | OCc1ccc(-c2noc(C(F)(F)Cl)n2)cc1F [VIII"-a, (4-{5-[chloro(difluoro)methyl]-1,2,4-oxadiazol-3-yl}-2-fluorophenyl)methanol] | – |
| 4.66 | 4.66 | Fc1cc(-c2noc(C(F)(F)Cl)n2)ccc1CBr [VIII'-a, 3-[4-(bromomethyl)-3-fluorophenyl]-5-[chloro(difluoro)methyl]-1,2,4-oxadiazole] | – |
| 4.48 | 4.48 | FC(F)(Cl)c1nc(-c2ccc(CBr)cc2)no1 [VIII'-c, 3-[4-(Bromomethyl)phenyl]-5-(chlorodifluoromethyl)-1,2,4-oxadiazole] | – |
| 4.55 | 4.55 | Cc1ccc(-c2noc(C(F)(F)Cl)n2)cc1 [X-b, 3-(4-Methylphenyl)-5-(chlorodifluoromethyl)-1,2,4-oxadiazole] | – |
